The nature of the data set: Solubility in artificial gastric juice versus artificial intestinal fluid. In kind it is physicochemical. Conditions: artificial gastric juice vs artificial intestinal fluid. Here is the method:
Rosiglitazone is a second-generation thiazolidinedione hypoglycemic agent. Gastric floating tablets of rosiglitazone reported in the literature are prepared by conventional preparation techniques for gastric floating tablets as follows: the hydrophilic gel material with high viscosity, i.e., hydroxypropyl methyl cellulose (HPMC) is selected, to which appropriate amount of foaming agent is added, and then the resulting mixture is compressed into tablets by direct powder compression. The resulting gastric floating tablets are claimed to have the same bioavailability with common tablets administered in a multiple doses [Hao Feng, Zhimin Wang, Dawei Chen, Studies on floating sustained release tablets of rosiglitazone maleate, Journal of China Pharmaceutical University, 2002, 33 (3): 196-199]. […] The gas-vesicle-type floating formulation of the present invention can ensure that the density of the formulation is relatively small (generally<0.6 g/cm^3), thereby it can float at the early stage of administration, since the shape of the capsule keeps unchange in the stomach. Thus, the entire volume of the formulation remains relatively stable, so that stable and sustainable floating capacity is achieved.

SMILES strings stand for the structures.

For the compound `CN(CCOc1ccc(CC2SC(=O)NC2=O)cc1)c1ccccn1` (stereo not shown) [rosiglitazone], the “solubility in artificial gastric juice relative to artificial intestinal fluid” value is listed as “about a million times more”.
